Data: ChEMBL document CHEMBL1134526, “Enantioselective syntheses of potent retinoid X receptor ligands: differential biological activities of individual antipodes” (J Med Chem, 2001)

Columns and labels:
Assay type in all cases: functional
[1] = system: Mus musculus; assay: Hypoglycemic activity in mice at 2 mg/kg dose at day=7
[2] = system: Mus musculus; assay: Hypoglycemic activity in mice at 0.4 mg/kg dose at day=7
[3] = system: Mus musculus; assay: Hypoglycemic activity in mice at 2 mg/kg dose at day=0
[4] = system: Mus musculus; assay: Hypoglycemic activity in mice at 0.4 mg/kg dose at day=0
[5] = system: Mus musculus; assay: Hypoglycemic activity in mice at 8 mg/kg dose at day=7
[6] = system: Mus musculus; assay: Hypoglycemic activity in mice at 8 mg/kg dose at day=0

Compound	Glucose level [1] [mg/dL]	Glucose level [2] [mg/dL]	Glucose level [3] [mg/dL]	Glucose level [4] [mg/dL]	Glucose level [5] [mg/dL]	Glucose level [6] [mg/dL]
CC(/C=C/[C@@H]1C[C@]1(C)c1ccc2c(c1)C(C)(C)CCC2(C)C)=C\C(=O)O [IRX-4204]	221	291	404	406		
CC(/C=C/[C@H]1C[C@@]1(C)c1ccc2c(c1)C(C)(C)CCC2(C)C)=C\C(=O)O	391		400		441	404
